Measured values: patent publication US20100285145A1, “GPR 119 MODULATORS” (PFIZER INC, priority 2009, published 2010)
“And” between values parts separate entries of the source, which are not always exact repeats. Identical values can stand only once.

Columns and labels:
Assay type in all cases: cell-based
[1] = target: T1, human GPR119 (Homo sapiens, UniProt Q8TDV5); test: β-Lactamase reporter functional assay (hGPR119 HEK293-CRE beta-lactamase cells); set-up: host or cells: HEK293-CRE beta-lactamase; Emax: dose or concentration left out as unconfirmed; details: for EC50: hGPR119 HEK293-CRE beta-lactamase cells, 16 h incubation, each line a separate determination, read-out: Human B-lactamase Functional EC50; for Emax / Intrinsic Activity (Human B-lactamase): percent of maximal activity relative to standard GPR119 agonist at 10 micromolar; for Emax: read-out: Intrinsic Activity (Human B-lactamase)
T1 sequence (Q8TDV5 1-335): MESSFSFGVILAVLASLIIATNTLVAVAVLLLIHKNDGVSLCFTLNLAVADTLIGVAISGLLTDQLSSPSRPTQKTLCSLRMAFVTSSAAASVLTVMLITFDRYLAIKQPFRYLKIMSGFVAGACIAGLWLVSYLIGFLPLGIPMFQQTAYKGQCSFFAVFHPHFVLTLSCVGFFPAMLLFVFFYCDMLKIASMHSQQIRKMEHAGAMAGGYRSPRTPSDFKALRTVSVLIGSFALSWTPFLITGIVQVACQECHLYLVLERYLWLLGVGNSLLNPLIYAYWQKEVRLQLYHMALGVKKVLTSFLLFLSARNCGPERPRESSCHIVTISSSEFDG
Description: The assay for GPR119 agonists utilizes a cell-based (hGPR119 HEK293-CRE beta-lactamase) reporter construct where agonist activation of human GPR119 is coupled to beta-lactamase production via a cyclic AMP response element (CRE). GPR119 activity is then measured utilizing a FRET-enabled beta-lactamase substrate, CCF4-AM (Live Blazer FRET-B/G Loading kit, Invitrogen cat #K1027). Specifically, hGPR119-HEK-CRE-beta-lactamase cells (Invitrogen 2.5×10^7/mL) were removed from liquid nitrogen storage, and diluted in plating medium (Dulbecco's modified Eagle medium high glucose (DMEM; Gibco Cat # 11995-065), 10% heat inactivated fetal bovine serum (HIFBS; Sigma Cat # F4135), 1×MEM Nonessential amino acids (Gibco Cat # 15630-080), 25 mM HEPES pH 7.0 (Gibco Cat # 15630-080), 200 nM potassium clavulanate (Sigma Cat # P3494). The cell concentration was adjusted using cell plating medium and 50 microL of this cell suspension ([…]) was added into each well of a black, clear bottom, poly-d-lysine coated 384-well plate (Greiner Bio-One cat# 781946) and incubated at 37 degrees Celsius in a humidified environment containing 5% carbon dioxide. After 4 hours the plating medium was removed and replaced with 40 microL of assay medium (Assay medium is plating medium without potassium clavulanate and HIFBS). Varying concentrations of each compound to be tested was then added in a volume of 10 microL (final DMSO ≦0.5%) and the cells were incubated for 16 hours at 37 degrees Celsius in a humidified environment containing 5% carbon dioxide. Plates were removed from the incubator and allowed to equilibrate to room temperature for approximately 15 minutes. 10 microL of 6×CCF4/AM working dye solution (prepared according to instructions in the Live Blazer FRET-B/G Loading kit, Invitrogen cat #K1027) was added per well and incubated at room temperature for 2 hours in the dark. Fluorescence was measured on an EnVision fluorimetric plate reader, excitation 405 nm, emission 460 nm/535 nm. EC50 determinations were made from agonist-response curves analyzed with a curve fitting program using a 4-parameter logistic dose-response equation.

[2] = target: T1, human GPR119; test: cAMP HTRF functional assay (hGPR119 HEK-CRE beta-lactamase cells); set-up: host or cells: HEK293-CRE beta-lactamase; details: for EC50: HTRF cAMP, 30 min, 400 microM IBMX, each line a separate determination; for Emax / Intrinsic Activity (Human cAMP): percent of maximal activity relative to standard GPR119 agonist at 10 micromolar; for Emax: read-out: Intrinsic Activity (Human cAMP)
Description: GPR119 agonist activity was also determined with a cell-based assay utilizing an HTRF (Homogeneous Time-Resolved Fluorescence) cAMP detection kit (cAMP dynamic 2 Assay Kit; Cis Bio cat #62AM4PEC) that measures cAMP levels in the cell. The method is a competitive immunoassay between native cAMP produced by the cells and the cAMP labeled with the dye d2. The tracer binding is visualized by a Mab anti-cAMP labeled with Cryptate. The specific signal (i.e. energy transfer) is inversely proportional to the concentration of cAMP in either standard or sample.
Specifically, hGPR119 HEK-CRE beta-lactamase cells (Invitrogen 2.5×10^7/mL; the same cell line used in the beta-lactamase assay described above) are removed from cryopreservation and diluted in growth medium (Dulbecco's modified Eagle medium high glucose (DMEM; Gibco Cat # 11995-065), 1% charcoal dextran treated fetal bovine serum (CD serum; HyClone Cat # SH30068.03), 1×MEM Nonessential amino acids (Gibco Cat # 15630-080) and 25 mM HEPES pH 7.0 (Gibco Cat # 15630-080)). The cell concentration was adjusted to 1.5×10^5 cells/mL and 30 mLs of this suspension was added to a T-175 flask and incubated at 37 degrees Celsius in a humidified environment in 5% carbon dioxide. After 16 hours (overnight), the cells were removed from the T-175 flask (by rapping the side of the flask), centrifuged at 800×g and then re-suspended in assay medium (1×HBSS+CaCl2+MgCl2 (Gibco Cat # 14025-092) and 25 mM HEPES pH 7.0 (Gibco Cat # 15630-080)). The cell concentration was adjusted to 6.25×10^5 cells/mL with assay medium and 8 μl of this cell suspension (5000 cells) was added to each well of a white Greiner 384-well, low-volume assay plate (VWR cat #82051-458).
Varying concentrations of each compound to be tested were diluted in assay buffer containing 3-isobutyl-1-methylxanthin (IBMX; Sigma cat #15879) and added to the assay plate wells in a volume of 2 microL (final IBMX concentration was 400 microM and final DMSO concentration was 0.58%). Following 30 minutes incubation at room temperature, 5 microL of labeled d2 cAMP and 5 microL of anti-cAMP antibody (both diluted 1:20 in cell lysis buffer; as described in the manufacturers assay protocol) were added to each well of the assay plate. The plates were then incubated at room temperature and after 60 minutes, changes in the HTRF signal were read with an Envision 2104 multilabel plate reader using excitation of 330 nm and emissions of 615 and 665 nm. Raw data were converted to nM cAMP by interpolation from a cAMP standard curve (as described in the manufacturer's assay protocol) and EC50 determinations were made from an agonist-response curves analyzed with a curve fitting program using a 4-parameter logistic dose response equation.

[3] = target: T1, human GPR119; test: β-Arrestin PathHunter assay (U2OS hGPR119 β-arrestin cells); details: for EC50: U2OS hGPR119 β-arrestin cells, 90 min, each line a separate determination, read-out: Human B-arrestin Functional EC50; for Emax: U2OS, read-out: Intrinsic Activity (Human B-arrestin)
Description: GPR119 agonist activity was also determined with a cell-based assay utilizing DiscoverX PathHunter β-arrestin cell assay technology and their U2OS hGPR119 β-arrestin cell line (DiscoverX Cat # 93-0356C3). In this assay, agonist activation is determined by measuring agonist-induced interaction of β-arrestin with activated GPR119. A small, 42 amino acid enzyme fragment, called ProLink was appended to the C-terminus of GPR119. Arrestin was fused to the larger enzyme fragment, termed EA (Enzyme Acceptor). Activation of GPR119 stimulates binding of arrestin and forces the complementation of the two enzyme fragments, resulting in formation of a functional β-galactosidase enzyme capable of hydrolyzing substrate and generating a chemiluminescent signal.
Specifically, U2OS hGPR119 β-arrestin cells (DiscoverX 1×10^7/mL) are removed from cryopreservation and diluted in growth medium (Minimum essential medium (MEM; Gibco Cat # 11095-080), 10% heat inactivated fetal bovine serum (HIFBS; Sigma Cat # F4135-100), […] sodium pyruvate (Sigma Cat # S8636), 500 microg/mL G418 (Sigma Cat # G8168) and 250 microg/mL Hygromycin B (Invitrogen Cat # 10687-010). The cell concentration was adjusted to 1.66×10^5 cells/mL and 30 mLs of this suspension was added to a T-175 flask and incubated at 37 degrees Celsius in a humidified environment in 5% carbon dioxide. After 24 hours, the cells were removed from the T-175 flask with enzyme-free cell dissociation buffer (Gibco cat #13151-014), centrifuged at 800×g and then re-suspended in plating medium (Opti-MEM I (Invitrogen/BRL Cat # 31985-070) and 2% charcoal dextran treated fetal bovine serum (CD serum; HyClone Cat # SH30068.03).
The cell concentration was adjusted to 2.5×10^5 cells/mL with plating medium and 20 microliters of this cell suspension (5000 cells) was added to each well of a white Greiner 384-well low volume assay plate (VWR cat #82051-458) and the plates were incubated at 37 degrees Celsius in a humidified environment in 5% carbon dioxide.
After 16 hours (overnight) the assay plates were removed from the incubator and varying concentrations of each compound to be tested (diluted in assay buffer (1×HBSS+CaCl2+MgCl2 (Gibco Cat # 14025-092), 20 mM HEPES pH 7.0 (Gibco Cat # 15630-080) and 0.1% BSA (Sigma Cat # A9576)) were added to the assay plate wells in a volume of 5 microliters (final DMSO concentration was 0.5%). After a 90 minute incubation at 37 degrees Celsius in a humidified environment in 5% carbon dioxide, 12 microliters of Galacton Star β-galactosidase substrate (PathHunter Detection Kit (DiscoveRx Cat # 93-0001); prepared as described in the manufacturers assay protocol) was added to each well of the assay plate. The plates were incubated at room temperature and after 60 minutes, changes in the luminescence were read with an Envision 2104 multilabel plate reader at 0.1 seconds per well. EC50 determinations were made from an agonist-response curves analyzed with a curve fitting program using a 4-parameter logistic dose response equation.

[4] = percent of maximal activity relative to standard GPR119 agonist at 10 micromolar

EC50 [1]	Emax [1]	EC50 [2]	EC50 [3]	Emax [3, 4]	Emax [2]	Intrinsic Activity (Human B-lactamase) [1]	Intrinsic Activity (Human B-arrestin) [3, 4]	Compound	Intrinsic Activity (Human cAMP) [2]
7.27 µM	98.1%	> 10 µM	–	–	–	–	–	CC(C)OC(=O)N1CCC(Oc2cc(N3CCc4cc(S(C)(=O)=O)cnc43)ncn2)CC1 [Example 14, Isopropyl 4-({6-[5-(methylsulfonyl)-2,3-dihydro-1H-pyrrolo[2,3-b]pyridin-1-yl]pyrimidin-4-yl}oxy)piperidine-1-carboxylate]	–
0.111 µM	100%	–	–	–	–	–	–	Cc1c(O[C@H]2[C@@H]3COC[C@H]2CN(C(=O)OC(C)C)C3)ncnc1N1CCc2cc(S(C)(=O)=O)ccc21 [Example 24, Isopropyl (9-anti)-9-({5-methyl-6-[5-(methylsulfonyl)-2,3-d hydro-1H-indol-1-yl]pyrimidin-4-yl}oxy)-3-oxa-7-azabicyclo[3.3.1]nonane-7-carboxylate]	–
0.343 µM and 0.0513 µM and 0.0382 µM	98%	–	–	–	–	106%	–	CC(C)OC(=O)N1C[C@H]2COC[C@@H](C1)[C@@H]2Oc1cc(N2CCc3cc(S(C)(=O)=O)ccc32)ncn1 [Example 2, Isopropyl 9-syn-({6-[5-(methylsulfonyl)-2,3-dihydro-1H-indol-1-yl]pyrimidin-4-yl}oxy)-3-oxa-7-azabicyclo[3.3.1]nonane-7-carboxylate]	–
–	–	1.55 µM	–	–	154%	–	–	CN(C)C(=O)c1ccc2c(n1)CCN2c1cc(OC2CCN(C(=O)OC3(C)CC3)CC2)ncn1 [Example 33, 1-Methylcyclopropyl 4-({6-[5-(dimethylcarbamoyl)-2,3-dihydro-1H-pyrrolo[3,2-b]pyridin-1-yl]pyrimidin-4-yl}oxy)piperidine-1-carboxylate]	–

Further lines, the compound ahead of its results:

Compound	EC50 [1]	Emax [1]	EC50 [2]	EC50 [3]	Emax [3, 4]	Emax [2]	Intrinsic Activity (Human B-lactamase) [1]	Intrinsic Activity (Human B-arrestin) [3, 4]	Intrinsic Activity (Human cAMP) [2]
Cc1c(O[C@H]2CCN(C(=O)OC3(C)CC3)C[C@H]2F)ncnc1N1CCc2ncccc21 (racemic) [Example 19, 1-Methylcyclopropyl (3R,4S)-4-{[6-(2,3-dihydro-1H-pyrrolo[3,2-b]pyridin-1-yl)-5-methylpyrimidin-4-yl]oxy}-3-fluoropiperidine-1-carboxylate (racemic)]	–	–	0.0194 µM	0.00631 µM	74%	57.9%	–	–	–
CC(C)OC(=O)N1C[C@H]2COC[C@@H](C1)[C@@H]2Oc1ncnc(N2CCc3cc(S(C)(=O)=O)ccc32)c1C#N [Example 4]	0.00916 µM	87.9%	–	–	–	36.2%	–	–	36% and 35.3%
CC(C)OC(=O)N1C[C@H]2COC[C@@H](C1)[C@H]2Oc1ncnc(N2CCc3cc(S(C)(=O)=O)ccc32)c1C#N [Example 5]	0.0115 µM and 0.0125 µM	98.1%	0.357 µM and 0.602 µM and 1.75 µM and 1.33 µM and 1.8 µM and 3.14 µM	–	–	–	100%	–	–
Cc1c(O[C@@H]2CCN(C(=O)OC3(C)CC3)C[C@@H]2F)ncnc1N1CCc2ncccc21 [Example 18, 1-Methylcyclopropyl (3S,4R)-4-{[6-(2,3-dihydro-1H-pyrrolo[3,2-b]pyridin-1-yl)-5-methylpyrimidin-4-yl]oxy}-3-fluoropiperidine-1-carboxylate]	–	–	0.0188 µM and 0.0184 µM and 0.0159 µM and 0.0127 µM and 0.0146 µM	0.00257 µM and 0.019 µM and 0.00494 µM and 0.0206 µM	75.8%	–	–	73.7% and 81% and 78.9%	71.2% and 49.2% and 54.5% and 61.7% and 57.7%
CC1(OC(=O)N2CC[C@H](Oc3cc(N4CCc5nc(C(N)=O)ccc54)ncn3)[C@H](F)C2)CC1 (racemic) [Example 32, 1-Methylcyclopropyl (3R,4S)-4-{[6-(5-carbamoyl-2,3-dihydro-1H-pyrrolo[3,2-b]pyridin-1-yl)pyrimidin-4-yl]oxy}-3-fluoropiperidine-1-carboxylate]	–	–	0.273 µM	–	–	147%	–	–	–
